Where “and” joins values, the source holds several entries; their conditions need not be identical. Identical values can stand only once. Toxic doses and inconclusive results are not listed.

For the assay, the system named is L1210 leukemia ip in BDF1 mice, survival T/C. Description: NCI In Vivo Anticancer Drug Screen. Data for tumor model L1210 Leukemia (intraperitoneal) in B6D2F1 (BDF1) mice. To be noted: endpoint: mean survival time, higher = longer survival. In short, it runs like this:
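Value reflects the ratio of survival in compound-treated mice to survival in vehicle-treated controls, with both groups carrying the same transplanted tumor.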

Where [1] appears, read: dose: 100.0 mg/kg/injection, schedule: Q01DX001 (ip), vehicle: saline.
[2] abbreviates: dose: 100.0 mg/kg/injection, schedule: Q04DX003 (ip), vehicle: Klucel (hydroxypropylcellulose) (HPC).
The mark [3] stands for this setting: dose: 200.0 mg/kg/injection, schedule: Q04DX003 (ip), vehicle: Klucel (hydroxypropylcellulose) (HPC).
Setting [4] is: dose: 400.0 mg/kg/injection, schedule: Q04DX003 (ip), vehicle: Klucel (hydroxypropylcellulose) (HPC).
Setting [5] is: dose: 100.0 mg/kg/injection, schedule: Q04DX002 (ip), vehicle: Klucel (hydroxypropylcellulose) (HPC).
[6] abbreviates: dose: 200.0 mg/kg/injection, schedule: Q04DX002 (ip), vehicle: Klucel (hydroxypropylcellulose) (HPC).
Setting [7] is: dose: 400.0 mg/kg/injection, schedule: Q04DX002 (ip), vehicle: Klucel (hydroxypropylcellulose) (HPC).
Setting [8] is: dose: 50.0 mg/kg/injection, schedule: Q01DX009 (ip), vehicle: Klucel (hydroxypropylcellulose) (HPC).
Where [9] appears, read: dose: 100.0 mg/kg/injection, schedule: Q01DX009 (ip), vehicle: Klucel (hydroxypropylcellulose) (HPC).
Setting [10] is: dose: 200.0 mg/kg/injection, schedule: Q01DX009 (ip), vehicle: Klucel (hydroxypropylcellulose) (HPC).
[11] abbreviates: dose: 400.0 mg/kg/injection, schedule: Q01DX009 (ip), vehicle: Klucel (hydroxypropylcellulose) (HPC).

`CC1CCC(C2=CSC3CCCCC3N2)C(C)C1` (configuration not stated): the T/C (dose: 100.0 mg/kg/injection, schedule: Q04DX002 (ip), vehicle: other) is 111 % of control; the T/C (dose: 200.0 mg/kg/injection, schedule: Q04DX002 (ip), vehicle: other) was 101 % of control; the T/C (dose: 400.0 mg/kg/injection, schedule: Q04DX002 (ip), vehicle: other) was 97 % of control.

Regarding `CCN(CC)c1ccc(SSc2ccc(N(CC)CC)cc2)cc1`, the T/C by setting is: (dose: 25.0 mg/kg/injection, schedule: Q01DX001 (ip), vehicle: saline) 105 % of control; (dose: 50.0 mg/kg/injection, schedule: Q01DX001 (ip), vehicle: saline) 100 % of control; under setting [1], 100 % of control.

`CC1(C)C2CCC(CCOC(=O)COc3ccc(Cl)cc3)C1C2` (configuration not stated): the T/C reads like this: under setting [2], 98 % of control; under setting [3], 100 % of control; under setting [4], 100 % of control.

For the compound `Cc1ccon1`, the T/C by setting is: under setting [1], 102 % of control; (dose: 200.0 mg/kg/injection, schedule: Q01DX001 (ip), vehicle: saline) 100 % of control; (dose: 400.0 mg/kg/injection, schedule: Q01DX001 (ip), vehicle: saline) 96 % of control.

For the compound `CCC(C)(C)NC(N)=O`, the T/C is 99 % of control under setting [5], 92 % of control under setting [6] and 96 % of control under setting [7].

As to `COc1cc(OC)cc(C(N)=O)c1`, the T/C is, setting by setting: under setting [8], 88 % of control; under setting [9], 97 % of control; under setting [2], 86 % of control; under setting [10], 91 % of control; under setting [4], 86 % of control.

Regarding `COC(=O)c1cccc([N+](=O)[O-])c1Br`, the T/C runs as follows: (dose: 50.0 mg/kg/injection, schedule: Q01DX001 (ip), vehicle: other) 102 % of control; (dose: 100.0 mg/kg/injection, schedule: Q01DX001 (ip), vehicle: other) 96 % of control; (dose: 200.0 mg/kg/injection, schedule: Q01DX001 (ip), vehicle: other) 102 % of control; (dose: 400.0 mg/kg/injection, schedule: Q01DX001 (ip), vehicle: other) 100 % of control.

`CC(=O)OCc1ccc(O)c2ncccc12`: the T/C (dose: 75.0 mg/kg/injection, schedule: Q01DX001 (ip), vehicle: carboxymethylcellulose (CMC)) is 96 % of control and the T/C (dose: 150.0 mg/kg/injection, schedule: Q01DX001 (ip), vehicle: carboxymethylcellulose (CMC)) was 100 % of control.

In the case of `O=C(Cn1ccc(O)cc1=O)N1CCOCC1`, the T/C by setting is: (dose: 100.0 mg/kg/injection, schedule: Q01DX009 (ip), vehicle: water) 105 % of control; (dose: 100.0 mg/kg/injection, schedule: Q04DX003 (ip), vehicle: water) 101 % of control; (dose: 200.0 mg/kg/injection, schedule: Q01DX009 (ip), vehicle: water) 100 % of control; (dose: 200.0 mg/kg/injection, schedule: Q04DX003 (ip), vehicle: water) 106 % of control; (dose: 400.0 mg/kg/injection, schedule: Q01DX009 (ip), vehicle: water) 103 % of control; (dose: 400.0 mg/kg/injection, schedule: Q04DX003 (ip), vehicle: water) 94 % of control.

With `c1ccc(C2OC(c3ccccc3)C(c3ccccc3)OC2c2ccccc2)cc1` (configuration not stated), the T/C under setting [9] is 92 % of control, the T/C under setting [10] was 97 % of control and the T/C under setting [11] was 92 % of control.

`OC1C2CCC(C2)[CH]1[Hg][Cl]` (configuration not stated): under “dose: 15.0 mg/kg/injection, schedule: Q01DX001 (ip), vehicle: carboxymethylcellulose (CMC)”, the T/C was 95 % of control.

Take `COc1ccc(C(CC(=O)c2ccc(C)cc2)Sc2ccccc2N)cc1` (configuration not stated): the T/C by setting is: (dose: 100.0 mg/kg/injection, schedule: Q01DX005 (ip), vehicle: Klucel (hydroxypropylcellulose) (HPC)) 108 % of control; under setting [9], 94 % of control; under setting [5], 98 % of control; (dose: 200.0 mg/kg/injection, schedule: Q01DX005 (ip), vehicle: Klucel (hydroxypropylcellulose) (HPC)) 89 % of control; under setting [10], 97 % of control; under setting [6], 103 % of control. Besides, the T/C by setting is: (dose: 400.0 mg/kg/injection, schedule: Q01DX005 (ip), vehicle: Klucel (hydroxypropylcellulose) (HPC)) 86 % of control; under setting [11], 94 % of control; under setting [7], 103 % of control.

`CCCCCCCCCCOc1ccc(C=Nc2ccc(CC)cc2)cc1`: the T/C was 103 % of control under setting [9], 90 % of control under setting [10] and 93 % of control under setting [11].

Take `COc1ccc(F)cc1CC(=O)O`: the T/C is 102 % of control and 105 % of control under setting [5]; 98 % of control and 105 % of control under setting [6]; 91 % of control and 96 % of control under setting [7].

For the compound `CC(C)C(N)C(=O)NCCCCC(N)C(=O)O` (configuration not stated), the T/C is 103 % of control (dose: 25.0 mg/kg/injection, schedule: Q04DX002 (ip), vehicle: saline); 103 % of control (dose: 50.0 mg/kg/injection, schedule: Q04DX002 (ip), vehicle: saline); 100 % of control (dose: 100.0 mg/kg/injection, schedule: Q04DX002 (ip), vehicle: saline).

Consider `CCCCSP(=O)(SCCCC)c1ccccc1`, for which the T/C runs as follows: (dose: 100.0 mg/kg/injection, schedule: Q01DX001 (ip), vehicle: Klucel (hydroxypropylcellulose) (HPC)) 100 % of control; (dose: 200.0 mg/kg/injection, schedule: Q01DX001 (ip), vehicle: Klucel (hydroxypropylcellulose) (HPC)) 102 % of control; (dose: 400.0 mg/kg/injection, schedule: Q01DX001 (ip), vehicle: Klucel (hydroxypropylcellulose) (HPC)) 95 % of control.

For `CCOc1ccc(NS(=O)(=O)c2ccc(Cl)cc2)cc1`, the T/C under setting [9] is 102 % of control, the T/C under setting [10] is 112 % of control and the T/C under setting [11] was 116 % of control.

Turning to `CCCCC(CC)COP(=S)(S)OCC(CC)CCCC.[Sn]` (configuration not stated), the T/C was 100 % of control under setting [2], 99 % of control under setting [3] and 96 % of control under setting [4].

Consider `CN=C(N)Nc1ccc(NC(=O)Nc2ccc(NC(=O)Nc3ccc(NC(N)=NC)cc3)cc2)cc1`, for which the T/C is 100 % of control (dose: 3.75 mg/kg/injection, schedule: Q01DX Z (ip), vehicle: carboxymethylcellulose (CMC)); 110 % of control (dose: 7.5 mg/kg/injection, schedule: Q01DX Z (ip), vehicle: carboxymethylcellulose (CMC)); 170 % of control (dose: 30.0 mg/kg/injection, schedule: Q01DX Z (ip), vehicle: carboxymethylcellulose (CMC)); 100 % of control (dose: 31.0 mg/kg/injection, schedule: Q01DX Z (oral), vehicle: carboxymethylcellulose (CMC)); 110 % of control (dose: 62.0 mg/kg/injection, schedule: Q01DX Z (oral), vehicle: carboxymethylcellulose (CMC)); 95 % of control (dose: 125.0 mg/kg/injection, schedule: Q01DX Z (oral), vehicle: carboxymethylcellulose (CMC)). In addition, the T/C (dose: 250.0 mg/kg/injection, schedule: Q01DX Z (oral), vehicle: carboxymethylcellulose (CMC)) is 101 % of control.

For `N#CCCN(CCCN1CCOCC1)C(=S)Nc1ccc(Cl)cc1`, the T/C reads like this: (dose: 100.0 mg/kg/injection, schedule: Q04DX002 (ip), vehicle: saline with Tween-80) 94 % of control; (dose: 200.0 mg/kg/injection, schedule: Q04DX002 (ip), vehicle: saline with Tween-80) 90 % of control; (dose: 400.0 mg/kg/injection, schedule: Q04DX002 (ip), vehicle: saline with Tween-80) 101 % of control.

For `O=C(NCCBr)Nc1ccccc1`, the T/C reads like this: (dose: 12.5 mg/kg/injection, schedule: Q01DX009 (ip), vehicle: Klucel (hydroxypropylcellulose) (HPC)) 97 % of control; (dose: 25.0 mg/kg/injection, schedule: Q01DX009 (ip), vehicle: Klucel (hydroxypropylcellulose) (HPC)) 108 % of control; under setting [8], 108 % of control; (dose: 80.0 mg/kg/injection, schedule: Q01DX009 (ip), vehicle: Klucel (hydroxypropylcellulose) (HPC)) 103 % of control; (dose: 115.0 mg/kg/injection, schedule: Q01DX009 (ip), vehicle: Klucel (hydroxypropylcellulose) (HPC)) 114 % of control; (dose: 170.0 mg/kg/injection, schedule: Q01DX009 (ip), vehicle: Klucel (hydroxypropylcellulose) (HPC)) 95 % of control.

As for `COc1ccc(OC)c(NC(=S)N/N=C(/C)c2cc([N+](=O)[O-])c(O)cc2O)c1`, the T/C is, setting by setting: (dose: 12.5 mg/kg/injection, schedule: Q04DX002 (ip), vehicle: Klucel (hydroxypropylcellulose) (HPC)) 102 % of control; (dose: 25.0 mg/kg/injection, schedule: Q04DX002 (ip), vehicle: Klucel (hydroxypropylcellulose) (HPC)) 102 % of control; (dose: 50.0 mg/kg/injection, schedule: Q04DX002 (ip), vehicle: Klucel (hydroxypropylcellulose) (HPC)) 105 % of control.

(Values after PubChem BioAssay AID248 (DTP/NCI, 2004).)
